Bridge positions count the residues as written; N and C are the ends. Square brackets hold non-standard residues; d marks the D form. Peptide text beside a SMILES is read from it. Trp(6-Cl) = N[C@@H](Cc1c[nH]c2cc(Cl)ccc12)C(=O)O; Phe(4-COOH) = N[C@@H](Cc1ccc(C(=O)O)cc1)C(=O)O; R8 = C=CCCCCCC[C@@](C)(N)C(=O)O; Cba = N[C@@H](CC1CCC1)C(=O)O; hLeu = CC(C)CC[C@H](N)C(=O)O; S5 = C=CCCC[C@](C)(N)C(=O)O; Nle = CCCC[C@H](N)C(=O)O
Tests used:
[1] = Circular dichroism (CD) analysis of alpha-helicity; type: physicochemical
Procedure: Peptide solutions were analyzed by CD spectroscopy using a Jasco J-815 spectropolarimeter (Jasco Inc., Easton, Md.) with the Jasco Spectra Manager Ver. 2 system software. A Peltier temperature controller was used to maintain temperature control of the optical cell. Results are expressed as mean molar ellipticity (deg cm^2 dmol^−1) as calculated from the equation [0]=θobs·MRW/10*l*c where θobs is the observed ellipticity in millidegrees, MRW is the mean residue weight of the peptide (peptide molecular weight/number of residues), 1 is the optical path length of the cell in centimeters, and c is the peptide concentration in mg/ml. Peptide concentrations were determined by amino acid analysis. Stock solutions of peptides were prepared in benign CD buffer (20 mM phosphoric acid, pH 2). The stocks were used to prepare peptide solutions of 0.05 mg/ml in either benign CD buffer or CD buffer with 50% trifluoroethanol (TFE) for analyses in a 10 mm pathlength cell. Variable wavelength measurements of peptide solutions were scanned at 4° C. from 195 to 250 nm, in 0.2 nm increments, and a scan rate 50 nm per minute. The average of six scans was reported.

[2] = tested on: Caspase 3; assay: Caspase 3 detection assay in SJSA1 cells; type: cell-based; settings: SJSA1, 48 h, Caspase 3 activation over DMSO-treated cells
[3] = tested on: SJSA-1 cells; assay: Cell lysis by peptidomimetic macrocycles (LDH release); type: cell-based; settings: SJSA-1, 1 h
In short: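 Membrane lysis measured as supernatant LDH after a 1 h, 37 °C exposure of SJSA-1 cells, held in RPMI with 1% FBS, to macrocycles at final 6.25-50 μM with 0.5% DMSO. Lytic references were 10 μM melittin and 1% Triton X-100; DMSO alone served as non-lytic control.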

[4] = tested on: RKO; assay: Cell viability assay (MTT), RKO; settings: read-out: RKO EC50 (72 h)

Row | % Helix 50% TFE compared to 50% TFE parent (CD) ([1]; 50% TFE) | Molar Ellipticity 50% TFE (222 in 50% TFE) ([1]; 222 nm, CD buffer with 50% TFE, 0.05 mg/ml, 4° C.) | Molar Ellipticity Benign (222 in 0% TFE) ([1]; 222 nm, benign CD buffer (20 mM phosphoric acid, pH 2), 0.05 mg/ml, 4° C.) | % Helix benign compared to 50% TFE parent (CD) ([1]; benign buffer) | SMILES | caspase 0.3 μM [2] | caspase 1 μM [2] | caspase 3 μM [2] | caspase 10 μM [2] | caspase 30 μM [2] | 6.25 μM % Lysed cells (1 h LDH) [3] | 25 μM % Lysed cells (1 h LDH) [3] | 50 μM % Lysed cells (1 h LDH) [3] | EC50 [4]
1 | 136% | −21319.4 deg cm^2 dmol^−1 | −909 deg cm^2 dmol^−1 | 5.8% | CCCC[C@H](NC(=O)[C@H](CCC(N)=O)NC(=O)[C@H](CCC(N)=O)NC(=O)[C@]1(C)CCCC=CCCCCCC[C@@](C)(NC(=O)[C@H](Cc2ccccc2)NC(C)=O)C(=O)N[C@@H](C)C(=O)N[C@@H](Cc2ccc(O)cc2)C(=O)N[C@@H](Cc2c[nH]c3ccccc23)C(=O)N[C@@H]([C@@H](C)O)C(=O)N[C@@H](C)C(=O)N[C@@H](CC(C)C)C(=O)N1)C(=O)N[C@@H](C(N)=O)C(C)C [compound 41] (Ac-F[R8]AYWTAL[S5]QQ[Nle][dV]-NH2; staple 2-9) |  |  |  |  |  |  |  |  | 
2 |  |  |  |  | CC(=O)N[C@@H](CCC(=O)O)C(=O)N[C@H](C(=O)N[C@@H](Cc1ccccc1)C(=O)N[C@]1(C)CCCCCCC=CCCC[C@@](C)(C(=O)N[C@@H](C)C(=O)N[C@@H](C)C(=O)N[C@@H](C)C(=O)N[C@@H](C)C(=O)N[C@@H](C)C(=O)N[C@H](C)C(N)=O)NC(=O)[C@H](CC(C)C)NC(=O)[C@H](CCC(N)=O)NC(=O)[C@H](C)NC(=O)[C@H](Cc2c[nH]c3ccccc23)NC(=O)[C@H](Cc2ccc(O)cc2)NC(=O)[C@H](CCC(=O)O)NC1=O)[C@@H](C)O (single isomer, unassigned) [compound 341] | 3 | 8 | 11 | 14 | 21 | 0% | 0% | 0% | 15 to 30 µM
3 |  |  |  |  | CC[C@H](C)[C@H](NC(=O)[C@H](C)NC(=O)[C@H](C)NC(=O)[C@]1(C)CCCC=CCCCCCC[C@@](C)(NC(=O)[C@H](Cc2ccccc2)NC(=O)[C@@H](NC(=O)[C@H](CC(C)C)NC(C)=O)[C@@H](C)O)C(=O)N[C@@H](C)C(=O)N[C@@H](Cc2ccc(O)cc2)C(=O)N[C@@H](Cc2c[nH]c3ccccc23)C(=O)N[C@@H](C)C(=O)N[C@@H](CCC(N)=O)C(=O)N[C@@H](CC(C)C)C(=O)N1)C(=O)N[C@H](CC(C)C)C(N)=O (single isomer, unassigned) [compound 81] | 1 |  | 1 | 6 | 21 | 1% | 0% | 0% | 5 to 15 µM
4 |  |  |  |  | CC(=O)N[C@@H](CC(C)C)C(=O)N[C@H](C(=O)N[C@@H](Cc1ccc(F)c(F)c1)C(=O)N[C@]1(C)CCCCCC/C=C/CCC[C@@](C)(C(=O)N[C@@H](CO)C(=O)N[C@@H](C)C(=O)N[C@@H](C)C(N)=O)NC(=O)[C@H](CCC(C)C)NC(=O)[C@H](CCC(N)=O)NC(=O)[C@H](C)NC(=O)[C@H](Cc2c[nH]c3ccccc23)NC(=O)[C@H](Cc2ccc(O)cc2)NC(=O)[C@H](CCC(=O)O)NC1=O)[C@@H](C)O [compound 160] | 2 |  | 10 | 16 | 31 | −1% | −1% | 1% | > 30 µM
5 |  |  |  |  | CC(=O)N[C@@H](CC(C)C)C(=O)N[C@H](C(=O)N[C@@H](Cc1ccccc1)C(=O)N[C@]1(C)CCCCCC/C=C\CCC[C@@](C)(C(=O)N[C@@H](CO)C(=O)N[C@@H](C)C(=O)N[C@@H](C)C(N)=O)NC(=O)[C@H](CCC(C)C)NC(=O)[C@H](CCC(N)=O)NC(=O)[C@H](C)NC(=O)[C@H](Cc2c[nH]c3ccccc23)NC(=O)[C@H](Cc2ccc(O)cc2)NC(=O)[C@H](C)NC1=O)[C@@H](C)O [compound 114] (Ac-LTF[R8]AYWAQ[hLeu][S5]SAA-NH2; staple (Z) 4-11) | 1 |  | 6 | 28 | 34 | 3% | 4% | 9% | 5 to 15 µM
6 |  |  |  |  | CC(=O)N[C@@H](CC(C)C)C(=O)N[C@H](C(=O)N[C@@H](Cc1ccccc1)C(=O)N[C@]1(C)CCCCCCC=CCCC[C@@](C)(C(=O)N[C@@H](CO)C(=O)N[C@@H](C)C(=O)N[C@@H](C)C(=O)N[C@H](C)C(N)=O)NC(=O)[C@H](CC2CCC2)NC(=O)[C@H](CCC(N)=O)NC(=O)[C@H](C)NC(=O)[C@H](Cc2c[nH]c3ccccc23)NC(=O)[C@H](Cc2ccc(O)cc2)NC(=O)[C@H](CCC(=O)O)NC1=O)[C@@H](C)O (single isomer, unassigned) [compound 353] | 1 | 2 | 5 | 7 | 30 | 0% | 0% | 0% | 15 to 30 µM
7 |  |  |  |  | CC[C@H](C)[C@H](NC(=O)[C@H](C)NC(=O)[C@H](C)NC(=O)[C@]1(C)CCC/C=C/CCCCCC[C@@](C)(NC(=O)[C@H](Cc2ccccc2)NC(=O)[C@@H](NC(=O)[C@H](CC(C)C)NC(C)=O)[C@@H](C)O)C(=O)N[C@@H](CCC(=O)O)C(=O)N[C@@H](Cc2ccc(C(=O)O)cc2)C(=O)N[C@@H](Cc2c[nH]c3ccccc23)C(=O)N[C@@H](C)C(=O)N[C@@H](CCC(N)=O)C(=O)N[C@@H](CC2CCC2)C(=O)N1)C(=O)N[C@H](C)C(N)=O [compound 249] (Ac-LTF[R8]E[Phe(4-COOH)]WAQ[Cba][S5]AAI[dA]-NH2; staple (E) 4-11) | 2 |  | 5 | 11 | 23 | 0% | 0% | 0% | < 5 µM
8 |  |  |  |  | CC(=O)N[C@@H](CC(C)C)C(=O)N[C@H](C(=O)N[C@@H](Cc1ccccc1)C(=O)N[C@]1(C)CCCCCC/C=C/CCC[C@@](C)(C(=O)N[C@@H](C)C(=O)N[C@@H](C)C(=O)N[C@@H](C)C(=O)N[C@@H](C)C(=O)N[C@@H](C)C(=O)N[C@H](C)C(N)=O)NC(=O)[C@H](CC2CCC2)NC(=O)[C@H](CCC(N)=O)NC(=O)[C@H](C)NC(=O)[C@H](Cc2c[nH]c3ccccc23)NC(=O)[C@H](Cc2ccc(C(=O)O)cc2)NC(=O)[C@H](CCC(=O)O)NC1=O)[C@@H](C)O [compound 349] | 1 | 8 | 11 | 16 | 24 | 0% | 0% | 0% | 5 to 15 µM
9 |  |  |  |  | CC(=O)N[C@@H](CC(C)C)C(=O)N[C@H](C(=O)N[C@@H](Cc1ccccc1)C(=O)N[C@]1(C)CCCCCC/C=C/CCC[C@@](C)(C(=O)N[C@@H](CO)C(=O)N[C@@H](C)C(=O)N[C@@H](C)C(N)=O)NC(=O)[C@H](CC(C)C)NC(=O)[C@H](CCC(N)=O)NC(=O)[C@H](C)NC(=O)[C@H](Cc2c[nH]c3cc(Cl)ccc23)NC(=O)[C@H](Cc2ccc(O)cc2)NC(=O)[C@H](C)NC1=O)[C@@H](C)O [compound 99] (Ac-LTF[R8]AY[Trp(6-Cl)]AQL[S5]SAA-NH2; staple (E) 4-11) | 1 |  | 7 | 31 | 33 | 1.5% | 2% | 3.5% | < 5 µM
10 |  |  |  |  | CC(=O)N[C@@H](CCC(=O)O)C(=O)N[C@H](C(=O)N[C@@H](Cc1ccccc1)C(=O)N[C@]1(C)CCCCCCC=CCCC[C@@](C)(C(=O)N[C@@H](CO)C(=O)N[C@@H](C)C(=O)N[C@@H](C)C(N)=O)NC(=O)[C@H](CC(C)C)NC(=O)[C@H](CCC(N)=O)NC(=O)[C@H](C)NC(=O)[C@H](Cc2c[nH]c3ccccc23)NC(=O)[C@H](Cc2ccc(O)cc2)NC(=O)[C@H](CCC(=O)O)NC1=O)[C@@H](C)O [compound 161] (Ac-ETF[R8]EYWAQL[S5]SAA-NH2; staple 4-11) | 2 |  | 8 | 14 | 22 | 1% | −1% | 0% | > 30 µM

Source: US20200369728A1, “PEPTIDOMIMETIC MACROCYCLES AND USES THEREOF” (Aileron Therapeutics, Inc., priority 2015, published 2020)
